Reference: patent publication US20090105562A1, “SYSTEM AND METHODS FOR SCREENING OR ANALYZING TARGETS” (TAIPEI VETERANS GENERAL HOSPITAL, priority 2007, published 2009)

How the values were obtained:
[1] = system: NSCs isolated from the hippocampus of adult rats; assay: MTT cell viability/survival of NSCs treated with IM; type: cell-based, rat; details: 3 μM IM; Day 3, Day 5 and Day 7 cultures; p<0.05
Description: Adult Sprague-Dawley (SD) rats (8 weeks old, 250 g) were anesthetized with intraperitoneal phenobarbital (Sigma, USA), and the location of their brains was mapped. Then, the brain was surgically separated from the hippocampus region. In brief, tissues from the hippocampus of adult rats were dissociated and incubated in Hank's balanced salt solution (HBSS) containing collagenase (78 units/ml) and hyaluronidase (38 units/ml) for 10 minutes at 37° C. The tissues were then mechanically dissected and placed in a trypsin solution (1.33 mg/ml) at 37° C. for another 10 minutes. Dissociated cells were then centrifuged at 150 GG for 5 minutes. […] Viable cells were counted by trypan blue exclusion and plated as 5000 cells/200 μL per well in 96-well plates (Corning Inc, Acton, Mass., USA) with no substrate pretreatment. […] The amount of MTT fromazon product was determined using a microplate reader and the absorbance was measured at 560 nm (SpectraMax 250, Molecular Devices, Sunnyvale, Calif., USA). […] Each individual sample was analyzed in triplicate.

NSCs = assay: Real-time RT-PCR mRNA expression in IM-treated NSCs; type: cell-based, rat
Description: For real-time RT-PCR, the total RNA was extracted using the RNAeasy kit (Qiagen, Valencia, Calif., USA). Briefly, total RNA (1 μg) of each sample was reverse transcribed in 20 μL using 0.5 μg of oligo dT and 200 U Superscript II RT (Invitrogen, Carlsbad, Calif., USA). The amplification was carried out in a total volume of 20 μl containing 0.5 μM of each primer, 4 mM MgCl2, 2 μl LightCycler™ FastStart DNA Master SYBR green I (Roche Molecular Systems, Alameda, Calif., USA) and 2 μl of 1:10 diluted cDNA. The quantification in the unknown samples was performed with LightCycler Relative Quantification Software version 3.3 (Roche Molecular Systems, Alameda, Calif., USA). In each experiment, the GAPDH housekeeping gene was amplified as a reference standard. GAPDH primers were designed: GAPDH(f): […] (nt 414-434, GenBank accession no. BC059110.1), GAPDH(r): ATGACCTTGCCCACA GCCTT (nt 713-733). Other target gene primers were as follows: BDNF(f) 5′-CCAAGGCAGGTTCAA GAG-3′. BDNF(r): 5′-CCAGCAGAAAGAGAAGAGG-3′ (nt 146-331, GenBank accession no.NM_170735). Bcl-2(f): […] (nt 527-550, GenBank accession no. NM_016993.1), Bcl-2(r): GTTGTCCA CCAGGGGTGACAT (nt 721-742). Bax(f): GTGGT TGCCCTCTTCTACTTTGC (nt 328-351, GenBank accession no. NM_017059.1), Bax(r): GAGGACT CCAGCCACAAAGATG (nt 522-544). MAP2(f): GTTTACATTGTTCAGGAC CTCATGG (nt 316-341); MAP2(r): TCGGTAAGAAAGCC AGTGTGGT (nt 551-573. GenBank accession no. NM_U12008.1). Reactions were prepared in duplicate and heated to 95° C. for 10 minutes followed by 40 cycles of denaturation at 95° C. for 10 seconds, annealing at 55° C. for 5 seconds, and extension at 72° C. for 20 seconds. All PCR reactions were performed in duplicate. Standard curves (cycle threshold values versus template concentration) were prepared for each target gene and for the endogenous reference (GAPDH) in each sample. To confirm the specificity of the PCR reaction, PCR products were electrophoresed on a 1.2% agarose gel.

[2] = Day 3, Day 5 and Day 7 of IM-treated NSCs
[3] = Day 5 and Day 7 IM-treated vs non IM-treated NSCs, p<0.05

Structure (SMILES): CN(C)CCCN1c2ccccc2CCc2ccccc21 [IM, imipramine]
- cell survival (MTT assay) [1]: significantly increased
- level of Bcl-2 mRNA (NSCs; 1, 3 and 5 μM IM, Day 7, vs Day 7 non-IM-treated NSCs): significantly increased
- expression of Bad (NSCs; [2]): not activated
- expression of Bax (NSCs; [2]): not activated
- mRNA level of Bcl-2 (NSCs; [3]): significantly increased
- mRNA level of MAP2 (NSCs; [3]): significantly increased
